Data on one compound can be found in patent EP4803520A1, “COMPOUND CONTAINING FUSED BICYCLIC RING, PHARMACEUTICAL COMPOSITION, AND USE THEREOF” (priority 2023, dated 2025).

SMILES strings stand for the structures. Where only a bound is given, the exact number is not on record here.

The subject of one series is MDA-MB-436 cells. The series is described as follows: Assay on inhibitory activity for MDA-MB-436 cell proliferation (CCK-8). It counts as cell-based. Conditions: Homo sapiens, MDA-MB-436; 168 h of incubation, CCK-8, absorbance at 450 nm. The procedure:
MDA-MB-436 cells in a good growth state were collected into a centrifuge tube, adjusted to a cell density of 2 × 10^4 cells/mL using a complete medium (DMEM high glucose + 10% FBS + 1× insulin-transferrin-selenium (ITS-G) + 16 µg/mL reduced glutathione), and seeded in a 96-well plate (100 µL/well), and the plate was incubated overnight in a cell incubator. Compounds were added using a pipettor, such that the final concentrations of the compounds were 400 nM-0.02 nM. The wells were set in duplicate, and a control well was set. After 168 h of incubation in the cell incubator, the assay reagent CCK-8 (manufacturer: Dojindo Laboratories, Beijing; 10 µL/well) was added. After 1.5 h of incubation in the cell incubator, the absorbance values were measured at 450 nm on a PerkinElmer Envision microplate reader. […] Inhibitory activity results for DA-MB-436 cell proliferation of compounds

A short description of a further series: Mouse pharmacokinetics. It counts as in vivo. Conditions: plasma, ICR mice. From the text:
A non-compartmental model was used for fitting to calculate relevant pharmacokinetic parameters, and the results are shown in Table 3. Table 3. Pharmacokinetic results of compounds in mice

A further series is described as follows: Rat pharmacokinetics. It counts as in vivo. Conditions: plasma, SD rats. From the text:
A non-compartmental model was used for fitting to calculate relevant pharmacokinetic parameters, and the results are shown in Table 4. Table 4. Pharmacokinetic results of compounds in rats

For the next series, the target named is T1, PARP2 (Homo sapiens, UniProt Q9UGN5).
T1 construct: purchased BPS 80502
T1 sequence (Q9UGN5 whole entry): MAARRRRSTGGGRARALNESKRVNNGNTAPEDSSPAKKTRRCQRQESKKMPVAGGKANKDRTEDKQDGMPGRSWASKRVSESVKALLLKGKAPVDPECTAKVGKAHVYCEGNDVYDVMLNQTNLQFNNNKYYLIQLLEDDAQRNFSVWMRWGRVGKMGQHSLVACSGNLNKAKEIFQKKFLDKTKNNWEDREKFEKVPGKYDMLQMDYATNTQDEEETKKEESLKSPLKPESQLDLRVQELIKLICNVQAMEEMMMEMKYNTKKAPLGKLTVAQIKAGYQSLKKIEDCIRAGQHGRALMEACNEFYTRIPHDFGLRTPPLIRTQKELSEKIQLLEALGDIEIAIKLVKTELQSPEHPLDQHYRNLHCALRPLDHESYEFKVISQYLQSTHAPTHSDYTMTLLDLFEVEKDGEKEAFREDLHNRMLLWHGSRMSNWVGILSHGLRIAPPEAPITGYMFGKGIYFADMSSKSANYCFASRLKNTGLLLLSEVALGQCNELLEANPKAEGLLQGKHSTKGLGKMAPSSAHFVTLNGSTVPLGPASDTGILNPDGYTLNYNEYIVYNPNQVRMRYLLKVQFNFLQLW
Description: PARP2-Tracer activity assay (FP method). Conditions: PARP2 10 nM, Tracer 2.5 nM. The series is classed as binding. The method, then: (§1) The enzyme inhibition activity of the compounds against PARP1/2-Tracer was tested using the FP method. First, 100 nL of inhibitors with a final concentration of 1% DMSO were transferred to a 384-well reaction plate (Corning 4514) using Echo655. Then, 5 µL of a PARP1/2 (BPS, Cat. No. 80501/80502) enzyme solution was added to each well, followed by centrifugation at 1000 RPM for 1 min at room temperature, and the reaction was allowed to proceed for 10 min. Subsequently, 5 µL of a Tracer (ICE, Cat. No. 001315-009) solution was added to each well, followed by centrifugation at 1000 RPM for 1 min at room temperature, and the reaction was allowed to proceed for 60 min. PARP1/2 and Tracer were prepared in a buffer containing 50 mM Tris (pH 8.0), 10 mM MgCl2, 150 mM NaCl, and 0.001% Triox-100, with final concentrations of 5/10 nM and 2.5 nM, respectively. Finally, the FP signal was read using BMG (PHERAstar FSX), and the IC50 values and nonlinear regression curve fitting were obtained using GraphPad Prism software.

Series [1] in a line: Experiment on brain distribution in rats. Conditions: rat, po. It counts as in vivo, SD rats.
Series [2] has as its system MDA-MB-436 BRCA1m human breast cancer nude mouse subcutaneous xenograft tumor model. The series is described as follows: Pharmacodynamic evaluation in nude mouse subcutaneous xenograft tumor model. It counts as in vivo, nude mice. Conditions: ig 4 mg/kg once daily, after 22 days of administration. The procedure:
MDA-MB-436 BRCA1m human breast cancer cells (5 × 10^6 cells/mouse) were inoculated subcutaneously into the right axilla of SPF-grade female nude mice. When the mean tumor volume reached about 150 mm^3, the animals were grouped.
The day of grouping was defined as day 0. The compound of the present application was intragastrically administered once on day 0, and was then administered once daily at a dose of 4 mg/kg with a vehicle of DMSO:PEG400 = 10:90 (v/v). The tumor volume and body weight were measured twice to thrice every week, and the data were recorded. The general behavior of the mice was observed and recorded every day. After the experiment was completed, the tumors were extracted, weighed, and photographed.
The detection parameters and the calculation formulas are as follows: Tumor volume TV (mm^3) = 1/2 × (a×b^2), [formula] where a represents the long diameter of the tumor, and b represents the short diameter of the tumor. Relative tumor volume RTV = TVt /TV0 , [formula] wherein TV0 represents the tumor volume on day 0, and TVt represents the tumor volume at each measurement. Relative tumor proliferation rate T/C (%) = (TRTV/CRTV) × 100%, [formula] where TRTV represents RTV of the treatment group, and CRTV represents RTV of the vehicle control group. […]

The target of series [3] is T2, PARP1 (Homo sapiens, UniProt P09874). Description: PARP1-Tracer activity assay (FP method). It counts as binding. Further details: purchased BPS 80551. The procedure:
as §1

Series [4] concerns the target T2, PARP1. Description: Assay on PARP1 protein activity (chemiluminescence assay kit).
Description: A chemiluminescence assay kit (BPS, Cat. No. 80551) was used. 50 µL of 1× histone was added to a 96-well plate and incubated overnight at 4 °C. Each well was washed 3 times with 200 µL of a PBST buffer (containing 0.05% Tween-20), and the liquid was removed from the plate. 200 µL of blocking buffer 3 was added, and the plate was blocked at room temperature for 60-90 min. The blocking solution was discarded, and the plate was washed 3 times with a PBST buffer, followed by the removal of the liquid from the plate. 25 µL of a master mix (2.5 µL of a 10× PARP buffer + 2.5 µL of a 10× biotinylated substrate assay mix + 5 µL of activated DNA (5×) + 15 µL of water) and 5 µL of a 1× PARP buffer were added to each well. Compounds were sprayed using a nanoliter pipettor in the compound groups. 20 µL of a 1× PARP buffer was added to the blank control group, and 20 µL of PARP 1 enzyme (2.4 ng/mL) was added to the other wells to initiate the reaction. The plate was incubated at room temperature for 1 h. 50 µL of streptavidin-HRP (diluted 1:50 in blocking buffer 3) was added to each well, and the plate was incubated at room temperature for 30 min. The plate was washed three times with PBST, and the liquid was removed from the plate. 50 µL of ELISA ECL substrate A and 50 µL of ELISA ECL substrate B were mixed on ice before use, and 100 µL were added to each well.

T2 sequence (P09874 whole entry): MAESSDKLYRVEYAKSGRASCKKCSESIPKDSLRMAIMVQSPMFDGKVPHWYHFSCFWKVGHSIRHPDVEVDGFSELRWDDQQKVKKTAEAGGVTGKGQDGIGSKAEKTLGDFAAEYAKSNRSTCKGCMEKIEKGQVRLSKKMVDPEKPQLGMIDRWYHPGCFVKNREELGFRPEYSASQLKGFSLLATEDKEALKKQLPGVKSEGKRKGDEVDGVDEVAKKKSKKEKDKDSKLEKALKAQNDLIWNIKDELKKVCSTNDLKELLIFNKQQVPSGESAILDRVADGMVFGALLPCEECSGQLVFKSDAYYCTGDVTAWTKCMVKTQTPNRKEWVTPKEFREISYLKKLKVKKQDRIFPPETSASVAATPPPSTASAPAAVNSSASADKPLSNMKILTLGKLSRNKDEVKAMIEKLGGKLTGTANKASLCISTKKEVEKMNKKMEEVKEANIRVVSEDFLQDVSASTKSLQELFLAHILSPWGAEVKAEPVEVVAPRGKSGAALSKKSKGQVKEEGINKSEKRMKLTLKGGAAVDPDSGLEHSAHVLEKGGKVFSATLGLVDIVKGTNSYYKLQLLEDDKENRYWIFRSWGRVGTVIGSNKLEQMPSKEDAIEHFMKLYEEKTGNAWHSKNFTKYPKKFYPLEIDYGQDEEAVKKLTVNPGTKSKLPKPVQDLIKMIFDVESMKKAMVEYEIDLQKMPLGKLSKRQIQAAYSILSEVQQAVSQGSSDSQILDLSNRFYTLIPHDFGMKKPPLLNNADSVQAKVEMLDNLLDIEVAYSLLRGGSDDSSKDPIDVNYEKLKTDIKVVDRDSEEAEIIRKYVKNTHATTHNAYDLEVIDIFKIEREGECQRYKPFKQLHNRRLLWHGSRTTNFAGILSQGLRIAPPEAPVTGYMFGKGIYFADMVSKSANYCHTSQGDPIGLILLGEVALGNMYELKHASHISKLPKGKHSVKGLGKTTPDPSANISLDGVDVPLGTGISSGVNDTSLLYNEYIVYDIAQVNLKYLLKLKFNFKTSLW

`CNC(=O)n1cc2c(n1)CN([C@H]1CN(Cc3ccc4cc(C(F)(F)F)c(=O)[nH]c4c3F)[C@H]1C)C2` [Compound 55]: the IC50 – broadly, the concentration that inhibits the measured activity by half – was not above 50 nM in the series on MDA-MB-436 cells; more than 500 nM against PARP2; 3.1 nM at PARP1 [3] (FP method, PARP1 5 nM, Tracer 2.5 nM); less than 1 nM on PARP1 [4]. Besides, the AUC(0-t) (usually the area under the concentration-time curve up to a stated or last time point) in the series “Mouse pharmacokinetics” (iv 0.1 mg/kg) is 6650 ng·h/mL; in “Mouse pharmacokinetics” (po, ig 0.1 mg/kg) it was 5490 ng·h/mL; in “Rat pharmacokinetics” (iv 0.1 mg/kg), 326 ng·h/mL; in “Rat pharmacokinetics” (po, ig 0.5 mg/kg) it was 1710 ng·h/mL. The half-life (usually the time needed for the level to fall by half in the phase considered) is 13.6 h in the series “Mouse pharmacokinetics” (iv 0.1 mg/kg); 4.74 h in the series “Rat pharmacokinetics” (iv 0.1 mg/kg); 4.76 h in “Rat pharmacokinetics” (po, ig 0.5 mg/kg). The peak concentration (Cmax) – broadly, the peak of the concentration-time curve – in the series “Mouse pharmacokinetics” (po, ig 0.1 mg/kg) amounted to 331 ng/mL; in “Rat pharmacokinetics” (po, ig 0.5 mg/kg), 208 ng/mL. Also, in series [1] (brain, 2 mg/kg, read-out: Brain-to-blood ratio), the Kp at 8 h was 0.082. In series [1] (SD rats, ig 2 mg/kg, brain homogenate), the AUC (usually the area under the concentration-time curve, a measure of exposure) at 8 h was 453 ng·h/mL. This compound also displayed an AUC(0-t) at 8 h in series [1] (SD rats, ig 2 mg/kg, plasma) of 5530 ng·h/mL. For the same compound, in series [2], the tumor inhibition rate result was “up to 97%”. Further, on PARP1 [3] (ratio of PARP2 IC50 to PARP1 IC50, FP method), the “PARP2/PARP 1 selectivity” value is more than 200 fold.
